These results are taken from patent publication US3954814A, “Alkadienylcyclopropanecarboxylates” (Sumitomo Chemical Company, Limited, priority 1971, dated 1976).

Each structure is given as a SMILES string. Values after ≈ are worked out from the molar mass of the structure shown.

The subject of one assay is house flies. The experiment in a line: Campbell's turn table oil spray test on house fly adults (Experimental Example 1). In kind it is in vivo. To be noted: Musca domestica, 24 h, oil spray 5 ml, 10 min exposure, mortality after 1 day, read-out: LC50 (50 percent lethal concentration). The method, then:
The present compounds (1), (4), (8), (10), (14), (15), (20), (22), (32), (36), (38), (41), (44), (48), (50), (51), (52), (53), (61), (66), (68), (72), (73), (78), (80), (81), (90), (93) and (96), and chrysanthemic acid esters and pyrethric acid esters corresponding thereto were individually formulated by use of deodorized kerosene into oil sprays of various test concentrations.
Using the Campbell's turn table [disclosed in "Soap & Sanitary Chemicals," Vol. 14, No. 6, page 119 (1938)], 5 ml. of each of the oil sprays was sprayed. When 20 seconds had elapsed after the spraying, the shutter was opened, and adults of house flies (a group of about 100 flies) were exposed to the settling mist for 10 minutes and then transferred to an observation cage.
The above operation was repeated several times to measure the LC50 (50 percent lethal concentration) of each compound.
As for `COC(=O)C(C)=CC1C(C(=O)OCc2cccc(Oc3ccccc3)c2)C1(C)C` (stereo not shown) [3-Phenoxybenzyl pyrethrate, reference compound], the LC50 came out at 1250 µg/mL (≈ 3170 µM).
Regarding `C#CCc1ccc(C(C#C)OC(=O)C2C(C=C(C)C(=O)OC)C2(C)C)o1` (stereo not drawn) [5-Propargyl-α-ethynylfurfuryl pyrethrate, reference compound], the LC50 was determined as 820 µg/mL (≈ 2310 µM).
Regarding `C=CCc1cc(C)c(COC(=O)C2C(C=C(C)C(=O)OC)C2(C)C)c(C)c1` (stereo not shown) [2,6-Dimethyl-4-allylbenzyl pyrethrate, reference compound], the LC50 stood at 1420 µg/mL (≈ 3830 µM).
With `C=CC=CC1C(C(=O)OC(C#N)c2cccc(Oc3cccc(C)c3)c2)C1(C)C` (stereo not drawn) [Present compound (96), 3-(m-Tolyloxy)-α-cyanobenzyl 2',2'-dimethyl-3'-(1",3"-butadienyl)-cyclopropanecarboxylate], the LC50 came out at 60 µg/mL (≈ 155 µM).

Another assay relates to Northern house mosquitoes. The experiment in a line: knock-down test of oil sprays on Northern house mosquito adults in (70 cm)^3 glass chamber (Experimental Example 2). In kind it is in vivo. The settings on record: concentration of oil spray 0.1%. How it is done: The present compounds (1), (6), (20), (22), (23), (25), (27), (29), (30), (31), (39), (42), (43), (45), (49), (53), (56), (62), (64), (78), (81), (83), (85), (87), (88) and (89), and chrysanthemic acid esters and pyrethric acid esters corresponding thereto were individually formulated by use of deodorized kerosene into oil sprays of various test concentrations.
About 20 adults of Northern house mosquitoes were liberated in a (70 cm)^3 glass chamber, and 0.7 ml. of each of the oil sprays was sprayed into the chamber under a pressure of 1.5 kg/cm^2 by use of a glass atomizer. Subsequently, the number of knocked-down mosquitoes was counted to calculate the KT50 (50 percent knock down time) of each compound.
Take `C=CC=CC1C(C(=O)OC(C#N)c2cccc(Cc3ccccc3)c2)C1(C)C` (stereo not drawn) [Present compound (62), 3-Benzyl-α-cyanobenzyl 2',2'-dimethyl-3'-(1",3"-butadienyl)-cyclopropanecarboxylate]: the “KT50 (50 percent knock down time)” value is 144 s.
For `C=CC=CC1C(C(=O)OCN2C(=O)C(C)=C(C)C2=O)C1(C)C` (stereo not shown) [Present compound (89), Dimethylmaleimidomethyl 2,2-dimethyl-3-(1',3'-butadienyl)-cyclopropanecarboxylate], the “KT50 (50 percent knock down time)” value turned out to be 72 s.
`CC(C)=CC(C)=CC1C(C(=O)OCN2C(=O)C3=C(CCCC3)C2=O)C1(C)C` (stereo not shown) [Present compound (49), 3,4,5,6-Tetrahydrophthalimidomethyl 2',2'-dimethyl-3'-(2",4"-dimethyl-1",3"-pentadienyl)-cyclopropanecarboxylate]: the “KT50 (50 percent knock down time)” value worked out at 86 s.
Take `C=CC(C)=CC1C(C(=O)OCN2C(=O)C3=C(CC=CC3)C2=O)C1(C)C` (stereo not shown) [Present compound (30), 3,6-Dihydrophthalimidomethyl 2',2'-dimethyl-3'-(2"-methyl-1",3"-butadienyl)-cyclopropanecarboxylate]: the “KT50 (50 percent knock down time)” value was found to be 89 s.
For the molecule `CC(C)=CC1C(C(=O)OCN2C(=O)C3=C(CCCC3)C2=O)C1(C)C` (stereo not shown) [3,4,5,6-Tetrahydrophthalimidomethyl chrysanthemate, reference compound], the “KT50 (50 percent knock down time)” value worked out at 103 s.
On the same count and under the same terms, as for `C=CC=CC1C(C(=O)OCN2C(=O)C3=C(CC=CC3)C2=O)C1(C)C` (stereo not shown) [Present compound (88), 3,6-Dihydrophthalimidomethyl 2',2'-dimethyl-3'-(1",3"-butadienyl)-cyclopropanecarboxylate], the figure is 79 s.
On to `CC(C)=CC1C(C(=O)OCN2C(=O)C3=C(CC=CC3)C2=O)C1(C)C` (stereo not shown) [3,6-Dihydrophthalimidomethyl chrysanthemate, reference compound], for which the “KT50 (50 percent knock down time)” value was 107 s.
As to `C=CC(C)=CC1C(C(=O)OCN2C(=O)C3=C(CCCC3)C2=O)C1(C)C` (stereo not shown) [Present compound (27), 3,4,5,6-Tetrahydrophthalimidomethyl 2',2'-dimethyl-3'-(2"-methyl-1",3"-butadienyl)-cyclopropanecarboxylate], the “KT50 (50 percent knock down time)” value amounted to 83 s.
For the molecule `C=CC(C)=CC1C(C(=O)OCN2C(=O)C(C)=C(C)C2=O)C1(C)C` (stereo not shown) [Present compound (31), Dimethylmaleimidomethyl 2,2-dimethyl-3-(2'-methyl-1',3'-butadienyl)-cyclopropanecarboxylate], the “KT50 (50 percent knock down time)” value was 80 s.
`C#CCC1=C(C)C(OC(=O)C2C(C=CC=C)C2(C)C)CC1=O` (stereo not shown) [Present compound (83), 2-Propargyl-3-methyl-2-cyclopentene-1-one-4-yl 2',2'-dimethyl-3'-(1",3"-butadienyl)-cyclopropanecarboxylate]: the “KT50 (50 percent knock down time)” value amounted to 183 s.
Same read-out and setting: as for `CC=CC(C)=CC1C(C(=O)OCN2C(=O)C3=C(CCCC3)C2=O)C1(C)C` (stereo not shown) [Present compound (43), 3,4,5,6-Tetrahydrophthalimidomethyl 2',2'-dimethyl-3'-(2"-methyl-1",3"-pentadienyl)-cyclopropanecarboxylate], the figure is 197 s; as for `C#CCC1=C(C)C(OC(=O)C2C(C=C(C)C)C2(C)C)CC1=O` (stereo not shown) [2-Propargyl-3-methyl-2-cyclopentene-1-one-4-yl chrysanthemate, reference compound], 249 s; as for `C#CCC1=C(C)C(OC(=O)C2C(C=C(C)C=C)C2(C)C)CC1=O` (stereo not shown) [Present compound (25), 2-propargyl-3-methyl-2-cyclopentene-1-one-4-yl 2',2'-dimethyl-3'-(2"-methyl-1",3"-butadienyl)-cyclopropanecarboxylate], 190 s.
Consider `C=CC=CC1C(C(=O)OCN2C(=O)C3=C(CCCC3)C2=O)C1(C)C` (stereo not shown) [Present compound (85), 3,4,5,6-Tetrahydrophthalimidomethyl 2',2'-dimethyl-3'-(1",3"-butadienyl)-cyclopropanecarboxylate], for which the “KT50 (50 percent knock down time)” value was found to be 74 s.
Consider `CC(C)=CC1C(C(=O)OCN2C(=O)C(C)=C(C)C2=O)C1(C)C` (stereo not shown) [Dimethylmaleimidomethyl chrysanthemate, reference compound], for which the “KT50 (50 percent knock down time)” value worked out at 101 s.

Still in this assay, the particulars now being: concentration of oil spray 0.2%.
As for `C#CCc1ccc(COC(=O)C2C(C=CC=C)C2(C)C)o1` (stereo not shown) [Present compound (64), 5-Propargylfurfuryl 2',2'-dimethyl-3' -(1",3"-butadienyl)-cyclopropanecarboxylate], the “KT50 (50 percent knock down time)” value stood at 98 s.
As to `C=CC=CC1C(C(=O)OCN2C(=O)c3ccccc3C2=S)C1(C)C` (stereo not shown) [Present compound (87), Monothiophthalimidomethyl 2',2'-dimethyl-3'-(1",3"-butadienyl)-cyclopropanecarboxylate], the “KT50 (50 percent knock down time)” value stood at 177 s.
On the same count and under the same terms, under `CC(C)=CC1C(C(=O)OCN2C(=O)c3ccccc3C2=S)C1(C)C` (stereo not shown) [Monothiophthalimidomethyl chrysanthemate, reference compound] stands 207 s; under `C=CC(C)=CC1C(C(=O)OCN2C(=O)c3ccccc3C2=S)C1(C)C` (stereo not shown) [Present compound (29), Monothiophthalimidomethyl 2,2-dimethyl-3-(2'-methyl-1',3'-butadienyl)-cyclopropanecarboxylate], 182 s; under `C=CCC1=C(C)C(OC(=O)C2C(C=C(C)C(=O)OC)C2(C)C)CC1=O` (stereo not shown) [2-Allyl-3-methyl-2-cyclopentene-1-one-4-yl pyrethrate, reference compound], 173 s.
As to `C#CCc1ccc(COC(=O)C2C(C=C(C)C=C(C)C)C2(C)C)o1` (stereo not shown) [Present compound (45), 5-Propargylfurfuryl 2',2'-dimethyl-3'-(2",4"-dimethyl-1",3"-pentadienyl)-cyclopropanecarboxylate], the “KT50 (50 percent knock down time)” value came out at 117 s.
The same measure, in the same setting: as for `C=CCC1=C(C)C(OC(=O)C2C(C=C(C)C=C)C2(C)C)CC1=O` (stereo not shown) [Present compound (23), 2-Allyl-3-methyl-2-cyclopentene-1-one-4-yl 2',2'-dimethyl-3'-(2"-methyl-1",3"-butadienyl)-cyclopropanecarboxylate], the figure is 152 s.
For the molecule `C#CCc1ccc(COC(=O)C2C(C=C(C)C)C2(C)C)o1` (stereo not shown) [5-Propargylfurfuryl chrysanthemate, reference compound], the “KT50 (50 percent knock down time)” value stood at 132 s.
For the molecule `C#CCc1ccc(COC(=O)C2C(C=C(C)C=C)C2(C)C)o1` (stereo not shown) [Present compound (6), 5-Propargylfurfuryl 2',2'-dimethyl-3'-(2"-methyl-1",3"-butadienyl)-cyclopropanecarboxylate], the “KT50 (50 percent knock down time)” value came out at 105 s.
In the case of `C=CCC1=C(C)C(OC(=O)C2C(C=C(C)C=CC)C2(C)C)CC1=O` (stereo not shown) [Present compound (42), 2-Allyl-3-methyl-2-cyclopentene-1-one-4-yl 2',2'-dimethyl-3'-(2"-methyl-1",3"-pentadienyl)-cyclopropanecarboxylate], the “KT50 (50 percent knock down time)” value worked out at 165 s.
The same measure, in the same setting: as for `CC=C(C)C=CC1C(C(=O)OCc2coc(Cc3ccccc3)c2)C1(C)C` (stereo not shown) [Present compound (56), 5-Benzyl-3-furylmethyl 2',2'-dimethyl-3'-(3"-methyl-1",3"-pentadienyl)-cyclopropanecarboxylate], the figure is 150 s; as for `C#CCc1ccc(COC(=O)C2C(C=C(C)C=CC)C2(C)C)o1` (stereo not shown) [Present compound (39), 5-Propargylfurfuryl 2',2'-dimethyl-3'-(2"-methyl-1",3"-pentadienyl)-cyclopropanecarboxylate], 114 s.
